The subject of one data set is CMS5/CXCR4 tumours. As to the kind of experiment: Biodistribution of 125I-CPCR4 in CMS5 and CMS5/CXCR4 tumour bearing nude mice. The following applies: for accumulation in CMS5/CXCR4 tumours / accumulation in parental CMS5 (CXCR4 negative control) tumours: i.v. It counts as in vivo. Here is the method:
For animal experiments parental CMS5 cells and transduced CMS5/CXCR4 cells were injected subcutaneously in female Swiss nu/nu mice (Charles River, France). Therefore for each mouse 1.5×10^6 CMS5 cells and 2×10^6 CMS5/CXCR4 cells were resuspended in 75 μl PBS, respectively and mixed with the same volume Matrigel-Matrix HC (BD Biosciences, Heidelberg, Germany) according to the manufacturer's protocol. Subsequently cell suspension was inoculated at each shoulder, respectively. After 14-16 days of tumour growth mice were used for imaging and biodistribution purposes. All animal experiments were approved by the local authorities and are in compliance with the institutions guidelines.
The animals were sacrificed and dissected 30, 60 and 120 min after tracer injection. Organs of interest were removed and the radioactivity was measured in weighted tissue samples using the 1480 Wizard3 gamma counter from Wallac (Turku, Finland). Results are expressed as percent injected dose per gram tissue weight (% ID/g). Each value represents the mean of four to six animals.

Data set [1] deals with T1, human CXCR4 (Homo sapiens, UniProt P61073). As to the kind of experiment: Receptor internalization: tracer release after acidic buffer wash. Format: cell-based. More on the design: Jurkat cells that endogenously express the CXCR4 receptor; endogenous in cells; host or cells: Jurkat cells. The following applies: after two short washing steps with acidic buffer (pH5.0). The text has this: Thereafter the tracer was mostly releasable from the receptor (>80%).
T1 sequence (P61073 whole entry): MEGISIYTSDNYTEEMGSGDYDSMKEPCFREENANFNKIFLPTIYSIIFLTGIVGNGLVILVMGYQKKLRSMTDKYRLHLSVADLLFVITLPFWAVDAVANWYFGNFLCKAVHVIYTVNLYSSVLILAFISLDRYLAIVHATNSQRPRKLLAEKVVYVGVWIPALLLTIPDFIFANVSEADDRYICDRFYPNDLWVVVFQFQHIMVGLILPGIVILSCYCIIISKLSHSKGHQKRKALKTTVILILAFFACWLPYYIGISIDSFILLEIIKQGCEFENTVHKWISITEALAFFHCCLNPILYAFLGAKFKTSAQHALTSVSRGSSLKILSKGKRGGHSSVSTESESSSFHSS

The target in data set [2] is T1, human CXCR4. As to the kind of experiment: Radioligand (saturation) binding of 125I-CPCR4 on Jurkat and CMS5/CXCR4 cells. Also on record: Jurkat cells that endogenously express the CXCR4 receptor; endogenous in cells; host or cells: Jurkat cells. Here is the method:
For receptor binding assays cells were resuspended in PBS/0.2% BSA. A total of 200 μl of the suspension containing 400,000 Jurkat cells were incubated with 25 μl of the tracer solution (containing 3.1 kBq, approx. 0.1 nM) and 25 μl of the diluent or the competitor at different concentrations. […] Nonspecific binding was determined in the presence of 1 μM cold cyclo(D-Tyr^1[^127I]-Arg^2-Arg^3-Nal^4-Gly^5). After shaking for 2 h at room temperature, the incubation was terminated by centrifugation at 1300 rpm for 5 min. Cell pellets were washed once with cold PBS followed by a second centrifugation step. Cell bound radioactivity was determined by using a gamma counter. Experiments were repeated 2-3 times in triplicates. IC50 values of the compounds were calculated by nonlinear regression using GraphPad Prism (GraphPad Prism 4.0 Software, Inc., San Diego, Calif., USA). Each data point is the average of three determinations.
Whereas for Jurkat cells the Bmax value was more dependent on origin and varies stronger with culture conditions, the number of binding sites (Bmax) on CMS5/CXCR4 cells was constant and better reproducible (23±6 fmol receptor protein).

Where [3] appears, read: 60 min (1 h) post injection, listed as radiolabeled CPCR4.

Where “and” joins values, the source holds several entries; their conditions need not be identical. Equal entries are not always repeated.

For “cyclo(D-Tyr^1[^125I]-Arg^2-Arg^3-Nal^4-Gly^5) [^125I-CPCR4]”, in the data set on CMS5/CXCR4 tumours (30 min post injection), the accumulation in intestine is given as 16.0 (±4.7) % ID/g, the accumulation in liver was 27.7 (±4.9) % ID/g and the “accumulation in CMS5/CXCR4 tumours” value was 4.7 (±1.3) % ID/g. In the data set with CMS5/CXCR4 tumours (60 min (1 h) post injection), the accumulation in kidneys is 12.2 (±2.3) % ID/g; the “accumulation in CMS5/CXCR4 tumours” value is 5.5 (±1.5) % ID/g and 5.5 % ID/g; the “accumulation in parental CMS5 (CXCR4 negative control) tumours” value is 0.6 (±0.2) % ID/g. For the same substance, in the data set on CMS5/CXCR4 tumours (setting [3]), the “accumulation in CMS5/CXCR4 tumours” value worked out at 5.5±1.5 % ID/g, the “accumulation in parental CMS5 (CXCR4 negative control) tumours” value was 0.6±0.2 % ID/g and the accumulation in kidneys is on record as 12.2±2.3 % ID/g. For the same substance, in the data set with CMS5/CXCR4 tumours (1 h post injection), the “tracer uptake in intestine” value stood at 17.2±2.9 % ID/g and the “tracer uptake in liver” value amounted to 19.5±2.8 % ID/g. Moreover, the background accumulation in the data set with CMS5/CXCR4 tumours (1 h post injection, other organs) is less than 1.0 % ID/g. Further, in the data set on CMS5/CXCR4 tumours (120 min post injection), the accumulation in intestine is recorded as 19.2 (±4.5) % ID/g, the accumulation in kidneys was 8.2 (±1.1) % ID/g, the accumulation in liver is reported as 15.0 (±1.8) % ID/g and the “accumulation in CMS5/CXCR4 tumours” value was 3.8 (±1.4) % ID/g. Further, the “increased accumulation in CXCR4+ tumors compared to control tumors” value in the data set on CMS5/CXCR4 tumours (preliminary animal studies) is recorded as “around 10 times”. On human CXCR4 [1], the “tracer releasable from the receptor” value was more than 80%. This substance also yielded a specific binding at human CXCR4 [2] of more than 90%.

The values are drawn from US8614290B2, “Cancer imaging and treatment” (Technische Universitat Munchen, priority 2007, dated 2013).
